Test results as given in patent publication US20030099613A1, “Viral replicons and viruses dependent on inducing agents” (priority 1999, published 2003).

Tested on: dox-dependent SWS virus
Assay: Sensitivity of HIV-rtTA (SWS) replication to antiretroviral drugs in SupT1 cells
Type: cell-based, HIV-1
Settings: infected SupT1 cells maintained in the presence of dox
Experimental: FIG. 4. Replication of HIV-rtTA can be turned on and turned off. These experiments were performed with the SWS virus, but similar results have been obtained with the other HIV-rtTA variants. The SWS virus was used (2200 ng CA-p24) to infect 6×10^6 SupT1 cells at day 0. […] In panel B, the effect of delayed addition of dox (1000 ng/ml) was analyzed at day 3 after infection. In panel C, the infected cells were grown in 1000 ng/ml dox for 3 days, at which point the cells were washed and incubated in the absence or presence of dox. In panel D, infected cells were maintained in the presence of dox and the effect of the Protease-inhibitor Saquinavir (200 nM) and the RT-inhibitor AZT ([…]) was tested.
As an additional safety test, the sensitivity of the HIV-rtTA virus to antiretroviral drugs that are in current clinical use was analyzed. Because the basic set of viral genes in HIV-rtTA was not altered, including the genes encoding Protease (Pro) and Reverse Transcriptase (RT), these viruses are expected to remain fully sensitive to well-known drugs that target these essential enzymes.

Structure (SMILES) | inhibition of SWS virus replication (AZT 1 μg) | inhibition of SWS virus replication (Saquinavir 200 nM)
Cc1cn([C@H]2C[C@H](N=[N+]=[N-])[C@@H](CO)O2)c(=O)[nH]c1=O [AZT, 3′-azido, 3′-deoxythymidine] | inhibited efficiently | –
CC(C)(C)NC(=O)[C@@H]1C[C@@H]2CCCC[C@@H]2CN1C[C@@H](O)[C@H](Cc1ccccc1)NC(=O)[C@H](CC(N)=O)NC(=O)c1ccc2ccccc2n1 [Saquinavir] | – | inhibited efficiently
